Results as given in US10011614B2, “Bis-β-carboline compound and preparation method, pharmaceutical composition and use thereof” (XINJIANG HUASHIDAN PHARMACEUTICAL RESEARCH CO., LTD., priority 2012, dated 2018).

Tests used:
[1] = system: BGC (human gastric cancer cells); assay: Antitumor screening in vitro, MTT assay, BGC; type: cell-based; conditions: 48 hours
Description: (§1) Cell lines: BGC (human gastric cancer cells), A375 (human malignant melanoma cells), 769-P (human renal carcinoma cells), KB (human oral epidermoid carcinoma cells), SK-OV-3 (human ovarian cancer cells), etc, were selected, and the test method was the MTT assay. Cisplatin was as a positive control.
(§2) Specific methods are as follows: cells growing well in the logarithmic phase were seeded in 96-well plates at a concentration of 1×10^4 cells/ml, and then were placed in 37° C., containing 5% CO2 incubator for 24 hours. After discarding the old solution, changed fresh medium, and added sterilization treatment compound, and then cultured for 48 hours. After discarding the culture medium, 20 ul RPMI1640 medium containing 5 mg/ml MTT were added to each well in 96-well plates and cells were cultured for 4 hours. After the supernatant was carefully removed, 100 μl DMSO was added to each well, and the plates were Oscillated about 10 min to dissolve the precipitate, followed by detecting OD value in wavelength 490 nm by the microplate reader. Cell survival rate for each sample concentrations was determined by the following formula: The mean survival rate %=the average OD value of sample group/the average OD value of control group×100%
(§3) Morphological studies by mapping with the logarithm of the drug concentration and the mean survival rate % of each sample to obtain IC50 values for each sample.

[2] = system: A375 (human malignant melanoma cells); assay: Antitumor screening in vitro, MTT assay, A375; type: cell-based
Description: as §1, §2, §3

[3] = system: 769-P (human renal carcinoma cells); assay: Antitumor screening in vitro, MTT assay, 769-P; type: cell-based; conditions: 48 hours, 769-P cells
Description: as §1, §2, §3

[4] = system: KB (human oral epidermoid carcinoma cells); assay: Antitumor screening in vitro, MTT assay, KB; type: cell-based; conditions: 48 hours
Description: as §1, §2, §3

[5] = system: SK-OV-3 (human ovarian cancer cells); assay: Antitumor screening in vitro, MTT assay, SK-OV-3; type: cell-based; conditions: 48 hours, SK-OV-3 cells
Description: as §1, §2, §3

| SMILES | IC50 ([1]; Homo sapiens) | IC50 ([2]; Homo sapiens, A-375, 48 hours) | IC50 ([3]; Homo sapiens) | IC50 ([4]; Homo sapiens) | IC50 ([5]; Homo sapiens) | melting point | IC50 [1] | IC50 ([2]; 48 hours) | IC50 [3] | IC50 [4] | IC50 [5] |
| --- | --- | --- | --- | --- | --- | --- | --- | --- | --- | --- | --- |
| c1cncc(-c2nccc3c4ccccc4n(CCCCn4c5ccccc5c5ccnc(-c6cccnc6)c54)c23)c1 [Compound 31, 1,4-bis[1-(pyridine-3-yl)-β-carboline-9-yl) butane] | 270 µM | 85.3 µM | > 300 µM | > 300 µM | 36.8 µM | 224 to 225 °C | – | – | – | – | – |
| c1ccc2c(c1)c1ccnc(-c3ccsc3)c1n2CCCCCCn1c2ccccc2c2ccnc(-c3ccsc3)c21 [Compound 33, 1,6-bis[1-(3-thienyl)-β-carboline-9-yl) hexane] | > 300 µM | > 300 µM | > 300 µM | > 300 µM | 67.6 µM | 198 to 199 °C | – | – | – | – | – |
| O=[N+]([O-])c1ccc(Cl)c(-c2nccc3c4ccccc4n(CCCCCCCCCn4c5ccccc5c5ccnc(-c6cc([N+](=O)[O-])ccc6Cl)c54)c23)c1 [Compound 38, 1,9-bis[1-(2-chloro-5-nitrophenyl)-β-carboline-9-yl) nonane] | > 300 µM | > 300 µM | 1.8 µM | > 300 µM | > 300 µM | – | – | – | – | – | – |
| Cc1nccc2c3cc(Br)ccc3n(CCCCC(C)n3c4ccc(Br)cc4c4ccnc(C)c43)c12 (stereo not drawn) [Compound 21, 1,5-bis(6-bromo-1-methyl-β-carboline-9-yl) hexane] | > 300 µM | > 300 µM | 4.3 µM | > 300 µM | > 300 µM | 208 to 209 °C | – | – | – | – | – |
| Cc1nccc2c3ccccc3n(CCCCCCCn3c4ccccc4c4ccnc(C)c43)c12 [Compound 10, 1,7-bis(1-methyl-β-carboline-9-yl) heptane] | 134 µM | 38 µM | 149 µM | 87.9 µM | 16.9 µM | 189 to 190 °C | – | – | – | – | – |
| c1ccc2c(c1)c1ccncc1n2CCCCCCCn1c2ccccc2c2ccncc21 [Compound 4, 1,7-bis(11-carboline-9-yl) heptane] | – | – | – | – | – | – | > 300 µM | 286 µM | 53 µM | > 300 µM | 212 µM |
| c1cncc(-c2nccc3c4ccccc4n(CCCCCCn4c5ccccc5c5ccnc(-c6cccnc6)c54)c23)c1 [Compound 32, 1,6-bis[1-(pyridine-3-yl)-β-carboline-9-yl) hexane] | 14.1 µM | 5.3 µM | > 300 µM | 13.3 µM | 14.9 µM | – | – | – | – | – | – |
| Clc1ccccc1-c1nccc2c3ccccc3n(CCCCCCn3c4ccccc4c4ccnc(-c5ccccc5Cl)c43)c12 [Compound 35] | – | – | – | – | – | – | > 300 µM | 23.2 µM | > 300 µM | > 300 µM | > 300 µM |
| CCOC(=O)c1cc2c3ccccc3n(CCCCCCCCCn3c4ccccc4c4cc(C(=O)OCC)nc(-c5cc(OC)c(OC)c(OC)c5)c43)c2c(-c2cc(OC)c(OC)c(OC)c2)n1 [Compound 28, 1,9-bis[1-(3,4.5-trimethoxy)phenyl-β-carboline-3-ethyoxylcarbonyl-9-yl]nonane] | – | – | – | – | – | – | > 300 µM | 218 µM | 44.6 µM | > 300 µM | > 300 µM |
| N.N.[Cl][Pt][Cl] [Cisplatin, reference compound] | – | – | – | – | – | – | 17.3 µM | 39.2 µM | 11.6 µM | 13.1 µM | 4.2 µM |
| Brc1ccc2c(c1)c1ccncc1n2CCCCn1c2ccc(Br)cc2c2ccncc21 [Compound 41, 1,4-bis[6-bromo-βcarboline-9-yl) butane] | > 300 µM | > 300 µM | 3.1 µM | > 300 µM | 8.9 µM | – | – | – | – | – | – |
| CCCCOc1ccc2c3ccnc(C)c3n(CCCCn3c4cc(OCCCC)ccc4c4ccnc(C)c43)c2c1 [Compound 23, 1,4-bis(7-n-butoxy-1-methyl-β-carboline-9-yl) butane] | 8.5 µM | 3.8 µM | > 300 µM | 6.8 µM | 5.5 µM | 193 to 194 °C | – | – | – | – | – |
| Cc1nccc2c3ccc(OC(C)C)cc3n(CCCCCCn3c4cc(OC(C)C)ccc4c4ccnc(C)c43)c12 [Compound 25, 1,6-bis(7-isopropoxy-1-methyl-β-carboline-9-yl) hexane] | 194 µM | 18.5 µM | 95.4 µM | 19.8 µM | 17.1 µM | – | – | – | – | – | – |
| Cc1nccc2c3ccccc3n(CCCCCn3c4ccccc4c4ccnc(C)c43)c12 [Compound 8, 1,5-bis(1-methyl-β-carboline-9-yl)pentane] | > 300 µM | > 300 µM | > 300 µM | > 300 µM | 18.8 µM | 213 to 214 °C | – | – | – | – | – |
| COc1ccc2c3ccnc(C)c3n(CCCCCCCC(C)n3c4cc(OC)ccc4c4ccnc(C)c43)c2c1 (stereo not drawn) [Compound 18, 1,8-bis(7-methoxy-1-methyl-β-carboline-9-yl) nonane] | 104 µM | 113 µM | 114 µM | 38.6 µM | 10.2 µM | – | – | – | – | – | – |
| c1ccc2c(c1)c1ccncc1n2CCCCCCn1c2ccccc2c2ccncc21 [Compound 3, 1,6-bis(β-carboline-9-yl) hexane] | 13.8 µM | 10.8 µM | 12.8 µM | 13.9 µM | 38.9 µM | – | – | – | – | – | – |
| CCOC(=O)c1cc2c3ccccc3n(CCCCCCn3c4ccccc4c4cc(C(=O)OCC)nc(-c5cccnc5)c43)c2c(-c2cccnc2)n1 [Compound 30, 1,6-bis[3-ethyoxylcarbonyl-1-(pyridine-3-yl)-β-carboline-9-yl]hexane] | – | – | – | – | – | – | > 300 µM | > 300 µM | > 300 µM | > 300 µM | 68.3 µM |
| Cc1nccc2c3ccccc3n(CCCn3c4ccccc4c4ccnc(C)c43)c12 [Compound 6, 1,3-bis (1-methyl-β-carboline-9-yl) propane] | 252 µM | 69.5 µM | 145 µM | 160 µM | 26.4 µM | 239 to 240 °C | – | – | – | – | – |
| c1ccc2c(c1)c1ccncc1n2CCCCCCCCn1c2ccccc2c2ccncc21 [Compound 5, 1,8-bis(β-carboline-9-yl) octane] | > 300 µM | 285 µM | > 300 µM | > 300 µM | 33.5 µM | 180 to 181 °C | – | – | – | – | – |
| COc1ccc2c3ccnc(C)c3n(CCCCCn3c4cc(OC)ccc4c4ccnc(C)c43)c2c1 [Compound 15, 1,5-bis(7-methoxy-1-methyl-β-carboline-9-yl)pentane] | 58.6 µM | < 1.38 µM | 81 µM | 5 µM | 1.7 µM | 180 to 181 °C | – | – | – | – | – |
| CC(C)c1nccc2c3ccccc3n(CCCCCCCCCCn3c4ccccc4c4ccnc(C(C)C)c43)c12 [Compound 40, 1,10-bis[1-isopropyl-β-carboline-9-yl) decane] | > 300 µM | 19.6 µM | 4.6 µM | > 300 µM | > 300 µM | – | – | – | – | – | – |
| Clc1ccccc1-c1nccc2c3ccccc3n(CCCCCCCn3c4ccccc4c4ccnc(-c5ccccc5Cl)c43)c12 [Compound 36, 1,7-bis[1-(2-chlorophenyl)-β-carboline-9-yl) heptane] | > 300 µM | 10.4 µM | 82.1 µM | > 300 µM | > 300 µM | – | – | – | – | – | – |
| CCOC(=O)c1cc2c3ccccc3n(CCCCCn3c4ccccc4c4cc(C(=O)OCC)nc(-c5cccnc5)c43)c2c(-c2cccnc2)n1 [Compound 29, 1,5-bis[3-ethyoxylcarbonyl-1-(pyridine-3-yl)-β-carboline-9-yl]pentane] | – | – | – | – | – | – | 24.1 µM | 13 µM | 132 µM | 15.7 µM | > 300 µM |
| COc1cc(-c2nccc3c4ccccc4n(CCCCCCCn4c5ccccc5c5ccnc(-c6cc(OC)c(OC)c(OC)c6)c54)c23)cc(OC)c1OC [Compound 20, 1,7-bis[1-(3,4,5-trimethoxy)phenyl-β-carboline-9-yl) heptane] | – | – | – | – | – | – | > 300 µM | 4 µM | 3.3 µM | 7.6 µM | > 300 µM |
| c1ccc2c(c1)c1ccncc1n2CCCCCn1c2ccccc2c2ccncc21 [Compound 2, 1,5-bis(β-carboline-9-yl)pentane] | 23.5 µM | 10.2 µM | 15.3 µM | > 300 µM | > 300 µM | – | – | – | – | – | – |
| CCCCOc1ccc2c3ccnc(C)c3n(CCCCCCn3c4cc(OCCCC)ccc4c4ccnc(C)c43)c2c1 [Compound 24, 1,6-bis(7-n-butoxy-1-methyl-β-carboline-9-yl) hexane] | > 300 µM | > 300 µM | 56 µM | > 300 µM | > 300 µM | – | – | – | – | – | – |
| O=[N+]([O-])c1ccc(Cl)c(-c2nccc3c4ccccc4n(CCCCCCn4c5ccccc5c5ccnc(-c6cc([N+](=O)[O-])ccc6Cl)c54)c23)c1 [Compound 37, 1,6-bis[1-(2-chloro-5-nitro-phenyl)-⊕-carboline-9-yl) hexane] | – | – | – | – | – | – | > 300 µM | 7 µM | 3.8 µM | > 300 µM | > 300 µM |
